Measured values reported in patent US5545617A, “Therapeutic regulation of abnormal conjunctival goblet cell mucous secretion” (The Schepens Eye Research Institute, Inc., priority 1993, dated 1996).
Several values for one entry are separate records, joined by “and”; a condition that tells them apart may be missing. Identical values can stand only once. Counter-ions that a name gives are not always drawn. Like-named read-outs stand apart in the source and are kept apart here.

Experiments:
[1] = test system: conjunctival goblet cell mucous secretion; conditions: cited from earlier work
[2] = test system: conjunctival goblet cell mucous secretion; conditions: 100 μg topical, rabbits, cited from earlier work
[3] = test system: conjunctival goblet cell mucous secretion; assay: in vivo rat model: topical agents, density of mucin-containing goblet cells (alcian blue/PAS);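 for all read-outs here: rat eyes dosed topically with 20 µl drops every 20 min over 1 hr, non-secreted goblet cells counted in three 0.16 mm^2 conjunctival areas, lower density means more mucous secretion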; conditions: for (Stimulus) Optimal Effective Conc. (M): Table 1; for (Stimulus) Max % Increase in Secretion: Table 1, at optimal effective conc.; for conjunctival goblet cell mucous secretion (in words): topical application, summary of Example II; for concentration giving the maximum effect on goblet cell density: topical; for goblet cell mucous secretion (in words): summary of Example I
Description: Thus, the in vivo rat model can be used to study conjunctival goblet cell mucous secretion. With this model, the ocular surface of anesthetized rats is treated topically or subconjunctivally. After treatment, the animals are euthanized, the ocular surface is fixed, conjunctival tissue is removed and mucus in the secretory granules of goblet cells stained with alcian blue and periodic acid-Schiff's (PAS) reagents to indicate mucin-containing goblet cells. The number of mucin-containing goblet cells is then determined. A decrease in the number of mucin-containing goblet cells indicates an increase in goblet cell secretion.
To determine the effect of topically applied solutions, experimental solutions (20 μl drops) were placed on each eye from the temporal region every 20 min for 1 hr. The solutions were carefully removed with a cotton-tipped applicator from the nasal region of the eyes before placement of the next drop or before euthanization. […] Because conjunctival goblet cell density is not uniform throughout the conjunctiva, care was taken to use a specific area for sampling. […] Conjunctival buttons were then dissected and tissue placed epithelial side up on gelatin-coated, glass microscope slides. […] Mucin contained in the secretory granules of the goblet cells was stained with alcian blue and periodic acid-Schiff (PAS) stain (79). The number of mucin-containing goblet cells was counted in a masked fashion using light microscopy (standard Zeiss microscope) at 160× magnification. The density of mucin-containing goblet cells was determined by averaging counts of goblet cells in three 0.16 mm^2 areas in each button. A decrease in mucin containing goblet cell number per unit area (density) indicated an increase in mucous secretion.
The mucin-containing goblet cells stained purple and fuchsia with alcian blue and PAS, respectively. By focusing through the tissue, cells with moderate to intense staining and sharp, defined cell borders were considered non-secreted and were counted. Cells with very light stain, absence of color, indistinguishable color from background staining and fuzzy borders were considered cells that had secreted mucus and were not counted. Following these criteria, the non-secreted mucin-containing goblet cells in the three 0.16 mm^2 areas were counted, averaged and expressed as mucin-containing goblet cell density. Therefore, a decrease in mucin-containing goblet cell density indicated mucous secretion.
To determine the effect of topically applied compounds, an experimental buffer containing the test compound (20 μl drops) was placed on one eye from the temporal region every 20 min for 1 hr unless otherwise indicated. […] The solutions were removed from the nasal region of the eye with a cotton-tipped applicator. After the 1 hr protocol, animals were euthanized with sodium pentobarbital.

[4] = test system: conjunctival goblet cells; assay: light microscopy of H and E stained conjunctival sections after topical lidocaine; assay type: in vivo, rat; conditions: 1% topical
Description: The globe of the eye was excised. The posterior half of the globe was removed, followed by removal of the lens and iris. The remaining tissue (the ocular surface) including the cornea, the limbus, and the bulbar conjunctiva was frozen in O. C. T. Compound (Miles Inc., Elkart, Ind.).
Tissue sections (20 μm) were prepared from the ocular surface and stained with hematoxylin and eosin (H and E). Sections were examined using an Olympus Microscope (BH-2; Micro-Tech Optical, Inc., Hudson, Mass.).

[5] = test system: conjunctival goblet cell mucous secretion; assay: local anesthetics on sensory stimulation (corneal debridement) of goblet cell mucous secretion; assay type: in vivo, rat
Description: Rats were anesthetized with sodium pentobarbital (65 mg/kg).
Fifteen min after application of local anesthetic, the central cornea of one eye was wounded by debridement (2-3 mm diameter area), the other was sham-debrided and 5 min later the animal was euthanized with intraperitoneal sodium pentobarbital ([…]).

[6] = test system: conjunctival goblet cell density; conditions: long term exposure of rabbit ocular surface; cited from earlier work
[7] = 10^-8 M topical, 1 hr, inferior conjunctiva
[8] = 10^-4 M topical, 1 hr, inferior conjunctiva
[9] = 10^-8 M topical, 1 hr, Example II

Nc1ncnc2c1nc(Br)n2[C@@H]1O[C@@H]2COP(=O)(O)O[C@H]2[C@H]1O [8-Br-cAMP]
mucin discharge [1]: unaffected

Nc1nc2c(nc(Br)n2[C@@H]2O[C@@H]3COP(=O)(O)O[C@H]3[C@H]2O)c(=O)[nH]1 [8-Br-cGMP]
mucin discharge [1]: 2-3 fold

CCCC[C@H](C)C(O)C#CC1CCC(=O)C1C/C=C\CCCC(=O)OC (stereo partly drawn) [FCE20700, 11-deoxy-13,14-didehydro-16(S)-methylester methyl PGE2]
goblet cells with mucous secretion ([2]; 0.5 hr): 86.9%
goblet cells with mucous secretion ([2]; 2.5 hr): 90.3%

C[N+](C)(C)CCOC(N)=O.[Cl-] [carbachol, carbamyl choline chloride]
effect on mucin-containing goblet cell density ([3]; 10^-5 -10^-4 M topical): not at 10^-5 -10^-4 M
decrease in mucin-containing goblet cell density from contralateral control eye ([3]; 10^-6 M topical, 1 hr): 40%
effect on mucin-containing goblet cell density ([3]; 10^-7 M topical): decreased mucin-containing goblet cell density
(Stimulus) Optimal Effective Conc. (M) [3]: 10^-6 M
(Stimulus) Max % Increase in Secretion [3]: 41%
conjunctival goblet cell mucous secretion (in words) [3]: stimulate conjunctival goblet cell mucous secretion
concentration giving the maximum effect on goblet cell density ([3]; 1 hr, Example II): 10^-6 M

CCCCC(C)(C)[C@H](O)/C=C/[C@H]1[C@H](O)CC(=O)[C@@H]1C/C=C\CCCC(=O)O [dmPGE2, 16,16-dimethyl-prostaglandin E2]
mucin-containing goblet cell density, inferior bulbar conjunctiva ([3]; 1 μM topical, 1 hr, vs control): did not differ significantly from control values
mucin-containing goblet cell density, inferior bulbar conjunctiva ([3]; 10 μM topical, 1 hr, vs control): did not differ significantly from control values
decrease in mucin-containing goblet cell density from buffer-treated eyes ([3]; 100 μM topical, 1 hr, inferior conjunctiva): 30% and 39%
mucin-containing goblet cell density, inferior bulbar conjunctiva ([3]; 100 μM topical, 1 hr, mean±SE): 36±12 goblet cells/0.16 mm^2
goblet cell mucous secretion (in words) ([3]; 100 μM topical): increased goblet cell mucous secretion from inferior but not superior conjunctiva
mucin-containing goblet cell density, superior bulbar conjunctiva ([3]; 100 μM, 10 μM, 1 μM topical, 1 hr, vs contralateral control or buffer-treated eyes): Neither 100 μM, 10 μM, nor 1 μM dmPGE2 significantly altered the density
electron microscopy of goblet cells, inferior bulbar conjunctiva ([3]; 600 μM (FIG. 5B)): the goblet cells secreted mucous onto the ocular surface

NCCc1ccc(O)c(O)c1 [dopamine, 3-hydroxytyramine]
decrease in mucin-containing goblet cell density from contralateral control [3, 7]: 64%
(Stimulus) Optimal Effective Conc. (M) [3]: 10^-8 M
(Stimulus) Max % Increase in Secretion [3]: 64%
conjunctival goblet cell mucous secretion (in words) [3]: stimulate conjunctival goblet cell mucous secretion
concentration giving the maximum effect on goblet cell density ([3]; 1 hr, Example II): 10^-8 M

CNC[C@H](O)c1ccc(O)c(O)c1 [epinephrine, (-)-epinephrine]
electron microscopy of goblet cells, inferior bulbar conjunctiva ([3]; 1 μM (FIG. 5D)): some of the goblet cells secreted mucus onto the ocular surface in an all or none fashion
goblet cell mucous secretion (in words) ([3]; 100 μM topical): stimulated mucous secretion
decrease in mucin-containing goblet cell density from contralateral control [3, 8]: 46%
mucin-containing goblet cell density, inferior conjunctiva ([3]; 10^-4 M topical, 1 hr, Example I, P<0.04 vs buffer): 159±35 cells
mucin-containing goblet cell density, inferior conjunctiva ([3]; 10^-6 M topical, 1 hr, Example I, unchanged vs buffer): 200±33 cells
mucin-containing goblet cell density, inferior conjunctiva ([3]; 10^-8 M topical, 1 hr, Example I, unchanged vs buffer): 180±55 cells
(Stimulus) Optimal Effective Conc. (M) [3]: 10^-2 M
(Stimulus) Max % Increase in Secretion [3]: 52%
conjunctival goblet cell mucous secretion (in words) [3]: stimulate conjunctival goblet cell mucous secretion
concentration giving the maximum effect on goblet cell density ([3]; 1 hr, Example II): 10^-4 M

CCN(CC)CC(=O)Nc1c(C)cccc1C [lidocaine, lidocaine hydrochloride]
goblet cells detected in H- and E-stained sections ([4]; 5 min (FIG. 6B)): some goblet cells
goblet cells detected in H- and E-stained sections ([4]; 10 min (FIG. 6C)): numerous goblet cells
effect on sensory stimulation of mucous secretion ([5]; 1% sub-conjunctival injection alone): inhibited sensory stimulation of mucous secretion
mucin-containing goblet cells in treated, wounded eyes ([5]; 1% sub-conjunctival injection prior to the wound): 100±28 cells
mucin-containing goblet cells in treated, contralateral sham-wounded eyes ([5]; 1% sub-conjunctival injection, sham-wounded): 98±24 cells
effect on sensory stimulation of mucous secretion ([5]; 1% topical alone): inhibited sensory stimulation of mucous secretion
effect on sensory stimulation of mucous secretion ([5]; 1% topical and sub-conjunctival injection): inhibited the sensory stimulation of goblet cell mucous secretion
mucin-containing goblet cells in treated, contralateral sham-wounded eyes ([5]; 1% topical and sub-conjunctival injection, sham-wounded): 110±25 cells
mucin-containing goblet cells in treated, wounded eyes ([5]; 1% topical and sub-conjunctival injection, then wounded): 132±21 cells
mucin-containing goblet cells in treated, wounded eyes ([5]; 1% topical prior to the wound): 84±7 cells
mucin-containing goblet cells in treated, sham-wounded eyes ([5]; 1% topical, sham-wounded): 78±5 cells

CNC[C@H](O)c1cccc(O)c1 [phenylephrine, L-phenylephrine hydrochloride]
decrease in mucin-containing goblet cell density from contralateral control [3, 8]: 40%
(Stimulus) Optimal Effective Conc. (M) [3]: 10^-4 M
(Stimulus) Max % Increase in Secretion [3]: 40%
conjunctival goblet cell mucous secretion (in words) [3]: stimulate conjunctival goblet cell mucous secretion
concentration giving the maximum effect on goblet cell density ([3]; 1 hr, Example II): 10^-4 M
conjunctival goblet cell density [6]: does not significantly affect conjunctival goblet cell density

CCCOc1ccc(C(=O)OCCN(CC)CC)cc1N [proparacaine, Proparacaine hydrochloride]
inhibition of sensory stimulation of mucous secretion ([5]; 0.5% topical, 15 min before corneal debridement): unable to inhibit sensory stimulation of mucous secretion

NCCc1c[nH]c2ccc(O)cc12 [serotonin, 5-hydroxytryptamine]
decrease in mucin-containing goblet cell density from contralateral control [3, 7]: 54%
mucin-containing goblet cell density, inferior conjunctiva [3, 9]: 148±27 cells
(Stimulus) Optimal Effective Conc. (M) [3]: 10^-8 M
(Stimulus) Max % Increase in Secretion [3]: 54%
conjunctival goblet cell mucous secretion (in words) [3]: stimulate conjunctival goblet cell mucous secretion
concentration giving the maximum effect on goblet cell density ([3]; 1 hr, Example II): 10^-8 M

Substance P
decrease in mucin-containing goblet cell density from contralateral control eye ([3]; 10^-6 M topical, 1 hr): 58%
mucin-containing goblet cell density ([3]; 10^-6 M topical, 1 hr, Example II): 77±18 cells
effect on mucin-containing goblet cell density ([3]; 10^-10 or 10^-8 M topical): not at 10^-10 or 10^-8 M
(Stimulus) Optimal Effective Conc. (M) [3]: 10^-6 M
(Stimulus) Max % Increase in Secretion [3]: 42%
conjunctival goblet cell mucous secretion (in words) [3]: stimulate conjunctival goblet cell mucous secretion

Vasoactive Intestinal Peptide [VIP]
decrease in mucin-containing goblet cell density from contralateral control [3, 7]: 39%
mucin-containing goblet cell density, inferior conjunctiva [3, 9]: 150±23 cells
(Stimulus) Optimal Effective Conc. (M) [3]: 10^-8 M
(Stimulus) Max % Increase in Secretion [3]: 39%
conjunctival goblet cell mucous secretion (in words) [3]: stimulate conjunctival goblet cell mucous secretion
concentration giving the maximum effect on goblet cell density ([3]; 1 hr, Example II): 10^-8 M
